# Experimental data reported in ChEMBL document CHEMBL1150342, “Novel 3-carboxamide-coumarins as potent and selective FXIIa inhibitors” (J Med Chem, 2008).
# Activity calls are given as the source filed them. No cut-off for these calls is given here. Non-standard residues stand in square brackets, D forms with d. Residues, ends and D or L forms follow the SMILES beside them. *: point of attachment. CH2Cl = ClC*
# What was measured:
# [1] = biological target: T1, Coagulation factor X (Homo sapiens, UniProt P00742); experiment: Inhibition of human factor 10a at 50 uM
# [2] = biological target: Coagulation factor VII/tissue factor (Homo sapiens) (UniProt P08709+P13726); experiment: Inhibition of human tissue factor/factor 7a at 50 uM
# [3] = biological target: T2, Plasma kallikrein (Homo sapiens, UniProt P03952); experiment: Inhibition of human kallikrein at 50 uM
# [4] = biological target: T3, Prothrombin (Homo sapiens, UniProt P00734); experiment: Inhibition of human thrombin
# [5] = biological target: T4, Coagulation factor XII (Homo sapiens, UniProt P00748); experiment: Inhibition of human factor 12a
# T4 sequence (P00748 whole entry): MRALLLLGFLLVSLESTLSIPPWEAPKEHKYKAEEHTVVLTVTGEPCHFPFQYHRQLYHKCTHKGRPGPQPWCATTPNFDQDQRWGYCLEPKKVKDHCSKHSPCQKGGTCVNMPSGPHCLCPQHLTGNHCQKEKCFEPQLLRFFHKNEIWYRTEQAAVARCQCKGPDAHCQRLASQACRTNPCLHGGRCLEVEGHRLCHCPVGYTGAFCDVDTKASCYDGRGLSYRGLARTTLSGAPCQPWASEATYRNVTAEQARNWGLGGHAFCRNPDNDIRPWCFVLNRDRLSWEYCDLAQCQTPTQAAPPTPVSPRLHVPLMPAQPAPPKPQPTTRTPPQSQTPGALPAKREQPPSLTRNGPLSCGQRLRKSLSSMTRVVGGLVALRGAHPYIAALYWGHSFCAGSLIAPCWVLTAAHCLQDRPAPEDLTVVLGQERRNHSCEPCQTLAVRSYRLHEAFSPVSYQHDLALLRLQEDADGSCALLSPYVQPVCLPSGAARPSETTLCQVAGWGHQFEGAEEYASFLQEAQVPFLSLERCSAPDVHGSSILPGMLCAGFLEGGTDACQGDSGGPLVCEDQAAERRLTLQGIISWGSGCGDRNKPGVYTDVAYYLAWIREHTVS
# [6] = biological target: Coagulation factor VII/tissue factor (Homo sapiens, UniProt P08709); experiment: Inhibition of human tissue factor/factor 7a; type: protein-complex assay
# [7] = biological target: T2, Plasma kallikrein; experiment: Inhibition of human kallikrein
# [8] = biological target: T1, Coagulation factor X; experiment: Inhibition of human factor 10a
# [9] = biological target: T3, Prothrombin; experiment: Inhibition of human thrombin at 50 uM
# [10] = biological target: T5, Coagulation factor XII (Homo sapiens) (UniProt P00748); experiment: Inhibition of human factor 12a at 50 uM
# T5 sequence (whole entry): T4 sequence (P00748 whole entry)
# [11] = biological target: T5, Coagulation factor XII (Homo sapiens); experiment: Inhibition of human factor 12a assessed as residual activity at 49.5 uM; conditions: TDE = time-dependent effect
# T1 sequence (P00742 41-179 limits assumed): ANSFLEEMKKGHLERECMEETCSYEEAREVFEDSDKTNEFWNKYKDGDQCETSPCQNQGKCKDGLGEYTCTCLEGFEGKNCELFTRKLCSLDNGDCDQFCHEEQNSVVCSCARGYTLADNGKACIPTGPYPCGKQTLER
# T1 sequence (P00742 235-488 limits assumed): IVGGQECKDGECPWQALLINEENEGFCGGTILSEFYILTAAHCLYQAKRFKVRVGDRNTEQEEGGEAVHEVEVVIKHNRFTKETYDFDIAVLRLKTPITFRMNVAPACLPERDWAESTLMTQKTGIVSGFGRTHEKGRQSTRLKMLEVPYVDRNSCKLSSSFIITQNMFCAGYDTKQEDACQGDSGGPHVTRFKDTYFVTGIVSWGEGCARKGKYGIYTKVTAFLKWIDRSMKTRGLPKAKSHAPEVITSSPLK
# Coagulation factor VII/tissue factor, sequence (P08709 61-212 limits assumed): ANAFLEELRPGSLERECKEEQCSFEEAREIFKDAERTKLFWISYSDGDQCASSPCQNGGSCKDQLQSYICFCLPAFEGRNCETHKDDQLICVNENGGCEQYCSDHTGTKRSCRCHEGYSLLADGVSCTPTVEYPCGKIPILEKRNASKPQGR
# Coagulation factor VII/tissue factor, sequence (P08709 213-466 limits assumed): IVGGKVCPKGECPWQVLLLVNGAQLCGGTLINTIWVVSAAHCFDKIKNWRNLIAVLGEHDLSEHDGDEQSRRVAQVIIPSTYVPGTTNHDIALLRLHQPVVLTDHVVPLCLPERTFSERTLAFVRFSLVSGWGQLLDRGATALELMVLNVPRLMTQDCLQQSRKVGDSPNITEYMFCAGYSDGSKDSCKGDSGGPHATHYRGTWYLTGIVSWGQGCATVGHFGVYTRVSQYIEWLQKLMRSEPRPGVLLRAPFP
# Coagulation factor VII/tissue factor, sequence (P13726 33-295 partner limits assumed): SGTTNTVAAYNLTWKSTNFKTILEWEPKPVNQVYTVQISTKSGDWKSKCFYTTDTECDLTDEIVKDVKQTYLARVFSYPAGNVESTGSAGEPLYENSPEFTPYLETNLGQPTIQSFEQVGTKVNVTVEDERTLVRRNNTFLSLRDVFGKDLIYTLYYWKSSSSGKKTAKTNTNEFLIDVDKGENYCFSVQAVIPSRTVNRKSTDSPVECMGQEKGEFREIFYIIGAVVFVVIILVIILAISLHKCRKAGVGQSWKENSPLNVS
# T2 sequence (P03952 20-390 limits assumed): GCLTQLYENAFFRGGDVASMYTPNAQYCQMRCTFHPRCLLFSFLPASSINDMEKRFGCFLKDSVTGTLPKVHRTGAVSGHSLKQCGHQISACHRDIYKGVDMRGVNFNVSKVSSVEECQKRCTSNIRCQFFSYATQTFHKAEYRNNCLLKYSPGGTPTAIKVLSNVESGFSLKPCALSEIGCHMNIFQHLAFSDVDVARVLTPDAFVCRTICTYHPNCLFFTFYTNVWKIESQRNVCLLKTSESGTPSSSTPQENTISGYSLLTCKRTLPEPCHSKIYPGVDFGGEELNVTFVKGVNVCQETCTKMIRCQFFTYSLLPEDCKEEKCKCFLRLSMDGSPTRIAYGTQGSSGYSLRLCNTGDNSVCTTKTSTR
# T2 sequence (P03952 391-638 limits assumed): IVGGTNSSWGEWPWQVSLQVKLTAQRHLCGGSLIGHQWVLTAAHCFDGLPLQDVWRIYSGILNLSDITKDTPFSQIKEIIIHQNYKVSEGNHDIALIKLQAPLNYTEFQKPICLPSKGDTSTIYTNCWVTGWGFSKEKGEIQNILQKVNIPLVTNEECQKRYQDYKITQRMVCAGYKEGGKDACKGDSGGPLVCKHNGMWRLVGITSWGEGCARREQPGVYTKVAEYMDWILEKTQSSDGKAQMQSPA
SMILES,Activity [1],Activity [2],Activity [3],IC50 [4] [µM],IC50 [5] [µM],IC50 [6] [µM],IC50 [7] [µM],IC50 [8] [µM],Activity [9],Activity [10],Activity [11],Activity [4]
Cc1cccc(NC(=O)c2cc3cc(C)ccc3oc2=O)c1,inactive,inactive,inactive,> 50,10,–,–,–,–,–,–,–
NC(N)=NCCC[C@H](NC(=O)[C@H](Cc1ccccc1)NC(=O)[C@H]1CCCN1)C(=O)CCl (H-[dP]-Phe-Arg-CH2Cl),–,–,–,2.5,0.18,1.5,0.031,1.9,–,–,–,–
Cc1ccc2oc(=O)c(C(=O)NC3CCCCC3)cc2c1,inactive,inactive,inactive,–,–,–,–,–,inactive,inactive,–,–
Cc1cc(C)cc(NC(=O)c2cc3cc(Cl)cc(Br)c3oc2=O)c1,–,–,–,> 50,32,> 50,> 50,> 50,–,–,–,–
Cc1cccc(NC(=O)c2cc3cc(Cl)cc(Br)c3oc2=O)c1,inactive,–,inactive,> 50,10,> 50,–,–,–,–,–,–
O=C(Nc1ccccc1)c1cc2c(ccc3ccccc32)oc1=O,–,–,–,> 50,–,> 50,> 50,> 50,–,inactive,–,–
O=C(Oc1ccccc1)c1cc2ccccc2oc1=O,inactive,inactive,inactive,–,–,–,–,–,inactive,inactive,–,–
Cc1ccc2oc(=O)c(C(=O)NCc3cccc4ccccc34)cc2c1,inactive,inactive,inactive,> 50,15,–,–,–,–,–,–,–
Cc1ccc2oc(=O)c(C(=O)Nc3ccccc3)cc2c1,inactive,inactive,–,> 50,23,–,> 50,–,–,–,–,–
COc1cc(Br)cc2cc(C(=O)Nc3ccccc3)c(=O)oc12,inactive,–,inactive,> 50,> 50,> 50,–,–,–,–,–,–
CCN(CC)c1ccc2cc(C(=O)Nc3ccccc3)c(=O)oc2c1,inactive,–,–,–,–,> 50,> 50,–,inactive,inactive,–,–
Cc1ccc2oc(=O)c(C(=O)NC3CCCCCCCCCCC3)cc2c1,inactive,inactive,inactive,–,33,–,–,–,inactive,–,–,–
Cc1ccc2oc(=O)c(C(=O)Nc3ccccc3C)cc2c1,inactive,inactive,inactive,> 50,32,–,–,–,–,–,–,–
Cc1ccc2oc(=O)c(C(=O)NCc3ccccc3)cc2c1,inactive,inactive,inactive,–,> 50,–,–,–,inactive,–,–,–
Cc1cc(C)cc(NC(=O)c2cc3cc(Cl)cc(Cl)c3oc2=O)c1,–,–,–,> 50,4.3,> 50,> 50,> 50,–,–,–,–
O=C(Nc1ccccc1)c1cc2ccccc2oc1=O,inactive,inactive,inactive,–,42,–,–,–,inactive,–,–,–
Cc1cccc(NC(=O)c2cc3cc(Cl)cc(Cl)c3oc2=O)c1,inactive,inactive,inactive,–,25,–,–,–,inactive,–,–,–
Cc1ccc2oc(=O)c(C(=O)NC(C)C)cc2c1,inactive,–,–,–,–,> 50,> 50,–,inactive,inactive,–,–

SMILES,Activity [1],Activity [2],Activity [3],IC50 [4] [µM],IC50 [5] [µM],IC50 [6] [µM],IC50 [7] [µM],IC50 [8] [µM],Activity [9],Activity [10],Activity [11],Activity [4]
O=C(Nc1ccccc1)c1cc2cc(Br)ccc2oc1=O,inactive,inactive,inactive,–,24,–,–,–,inactive,–,–,–
Cc1ccc2oc(=O)c(C(=O)Nc3ccccc3Cl)cc2c1,inactive,inactive,inactive,> 50,30,–,–,–,–,–,–,–
Cc1ccc(NC(=O)c2cc3cc(C)ccc3oc2=O)cc1,inactive,–,inactive,> 50,20,> 50,–,–,–,–,–,–
COc1ccc2cc(C(=O)Nc3ccccc3)c(=O)oc2c1,–,inactive,–,> 50,–,–,> 50,> 50,–,inactive,–,–
Cc1ccc2oc(=O)c(C(=O)NC34CC5CC(CC(C5)C3)C4)cc2c1,inactive,inactive,inactive,–,29,–,–,–,inactive,–,–,–
Cc1ccc2oc(=O)c(C(=O)Nc3ccc(Cl)cc3)cc2c1,inactive,inactive,inactive,> 50,34,–,–,–,–,–,–,–
Cc1cc(C)cc(NC(=O)c2cc3cc(C)ccc3oc2=O)c1,inactive,inactive,inactive,> 50,9.8,–,–,–,–,–,–,–
Cc1ccc2oc(=O)c(C(=O)Nc3cnc4ccccc4c3)cc2c1,inactive,inactive,inactive,–,8.3,–,–,–,inactive,–,–,–
O=C(Nc1ccccc1)c1cc2cc(Cl)cc(Cl)c2oc1=O,inactive,inactive,–,–,19,–,> 50,–,inactive,–,–,–
O=C(Nc1ccccc1)c1cc2cc([N+](=O)[O-])ccc2oc1=O,inactive,inactive,inactive,–,22,–,–,–,inactive,–,–,–
O=C(Nc1ccccc1)c1cc2ccc(O)cc2oc1=O,–,inactive,–,> 50,–,–,> 50,> 50,–,inactive,–,–
Cc1ccc2oc(=O)c(C(=O)Oc3ccccc3)cc2c1,inactive,inactive,inactive,–,–,–,–,–,inactive,inactive,–,–
Cc1ccc2oc(=O)c(C(=O)NCCc3ccccc3)cc2c1,inactive,inactive,inactive,–,> 50,–,–,–,inactive,–,–,–
O=C(Oc1ccccc1)c1cc2cc(CCl)ccc2oc1=O,–,inactive,inactive,7,> 50,–,–,> 50,–,–,–,–
O=C(Nc1ccccc1)c1cc2cc(CCl)ccc2oc1=O,–,inactive,inactive,> 50,17,–,–,> 50,–,–,–,–
O=C(Nc1ccccc1)c1cc2cc(Cl)cc(Br)c2oc1=O,inactive,inactive,inactive,–,4.4,–,–,–,inactive,–,tde,–
Cc1ccc2oc(=O)c(C(=O)Nc3cccc(Cl)c3)cc2c1,inactive,inactive,inactive,–,31,–,–,–,inactive,–,–,–
COc1cccc2cc(C(=O)Nc3ccccc3)c(=O)oc12,–,inactive,–,–,–,–,> 50,> 50,–,inactive,–,inactive
